One compound from patent publication US20130303465A1, “Cylodextrin Complexation Methods for Formulating Peptide Proteasome Inhibitors” (ONYX THERAPEUTICS, INC., priority 2012, published 2013) can be followed below.

The nature of data set [1]: physchem.
The nature of data set [2]: Solubility of carfilzomib as a function of SBECD concentration, pH and temperature. It counts as physicochemical. Particulars: SBECD solutions, citric acid 30 mM, pH 1.5 and pH 3.5, 5° C. and 25° C., 24 hours to equilibrate, FIG. 6. How it is done: The experiments at acidic conditions below the target pH values and titrated to pH 1.5 or 3.5 using aqueous sodium hydroside solution. Measurements of solubilized concentration were those from samples analyzed after 24 hours of time to equilibrate.

The nature of data set [3]: Slurry complexation of CFZ-API with SBECD and citric acid: dissolved complexed concentration. The data set is classed as physicochemical. As to the method:
In a 525 L stainless steel jacketed cooled tank controlled to 2° C.-8° C., a suspension of 2.0 kg carfilzomib-API (CFZ-API), 246 kg water for injection (WFI), and 100 kg sulfobutylether beta-cyclodextrin (SBECD) was prepared. Specifically, in the 525 L stainless steel jacketed cooled tank controlled to 2° C.-8° C., 100 kg SBECD was dissolved in 246 kg WFI. The Carfilzomib suspension was then prepared using 2.0 kg of CFZ-API. Mixing was performed using an impeller mixer to maintain suspension of the CFZ-API solids and dissolve the SBECD. In the same vessel, a probe style rotor-stator high shear mixer (homogenizer) was used as well as the low shear impeller. The high shear mixer was operated for approximately 1 hour yielding an even suspension and reduction of particle size for any larger primary particles or agglomerated API. After a suspension was achieved, 1.96 kg of citric acid was added as a 16% aqueous solution. The pH of the solution was then lowered inducing partial solubilization of the CFZ-API followed by and complexation due to the presence of SBECD. Mixing was continued for a further 24 hours with both the impeller and the high shear mixer and a dissolved concentration of CFZ-API of greater than 5.1 mg/mL was achieved. […]

SMILES strings stand for the structures.

Broadly, the solubility is the dissolved amount per volume that the medium holds. A low value points to little dissolved substance. In the case of `CC(C)C[C@H](NC(=O)[C@H](CCc1ccccc1)NC(=O)CN1CCOCC1)C(=O)N[C@@H](Cc1ccccc1)C(=O)N[C@@H](CC(C)C)C(=O)[C@@]1(C)CO1` [carfilzomib], the solubility in data set [1] is less than 10 µg/mL. Further, the “solubility difference between low and high temperature” value in data set [2] is “No significant differences in solubility”. For the same compound, the “effect of higher SBECD concentration on solubility” value in data set [3] (FIG. 3) is recorded as “increased the solubility”. Also, the “dissolved concentration of CFZ-API” value in data set [3] (SBECD/WFI suspension plus citric acid, mixing 24 hours, 2-8° C., 400 L batch) was “greater than 5.1 mg/mL”.
